Where “and” joins values, the source holds several entries; their conditions need not be identical. Equal values may be shown once. Entries after “also recorded” stand apart in the source; their conditions may differ. Marks after values point to notes of the source that are not given here.
Legend:
UGT1A4 = biological target: T1, UGT1A4 (Homo sapiens, UniProt P22310); test: Inhibition of glucuronide formation in UGT1A4-over-expressing cell homogenates; assay type: biochemical; conditions: 10 μM hecogenin
T1 sequence (P22310 29-534): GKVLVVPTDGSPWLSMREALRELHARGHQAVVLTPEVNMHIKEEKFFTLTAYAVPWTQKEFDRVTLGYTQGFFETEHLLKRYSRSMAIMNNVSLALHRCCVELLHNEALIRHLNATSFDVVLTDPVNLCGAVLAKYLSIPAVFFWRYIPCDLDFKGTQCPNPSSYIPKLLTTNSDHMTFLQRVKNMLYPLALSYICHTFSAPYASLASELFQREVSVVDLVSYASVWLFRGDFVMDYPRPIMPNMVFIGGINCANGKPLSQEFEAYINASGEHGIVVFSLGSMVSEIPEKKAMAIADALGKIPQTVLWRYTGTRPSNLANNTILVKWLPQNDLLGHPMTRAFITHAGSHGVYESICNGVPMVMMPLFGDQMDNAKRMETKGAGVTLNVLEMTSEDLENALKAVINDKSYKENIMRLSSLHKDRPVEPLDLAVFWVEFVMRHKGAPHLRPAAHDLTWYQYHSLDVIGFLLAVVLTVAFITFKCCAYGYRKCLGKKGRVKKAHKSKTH

[1] = test system: Human liver microsomes (HLM); assay type: biochemical; conditions: 10 μM hecogenin; 160 μM CLZ; HLM
UGT1A4^24Pro/48Val = biological target: T2, UGT1A4^24Pro/48Val (Homo sapiens, UniProt P22310, L48V); test: Glucuronidation by UGT1A4 24Pro/48Val variant-over-expressing cell homogenate
T2 sequence (P22310 29-534 L48V): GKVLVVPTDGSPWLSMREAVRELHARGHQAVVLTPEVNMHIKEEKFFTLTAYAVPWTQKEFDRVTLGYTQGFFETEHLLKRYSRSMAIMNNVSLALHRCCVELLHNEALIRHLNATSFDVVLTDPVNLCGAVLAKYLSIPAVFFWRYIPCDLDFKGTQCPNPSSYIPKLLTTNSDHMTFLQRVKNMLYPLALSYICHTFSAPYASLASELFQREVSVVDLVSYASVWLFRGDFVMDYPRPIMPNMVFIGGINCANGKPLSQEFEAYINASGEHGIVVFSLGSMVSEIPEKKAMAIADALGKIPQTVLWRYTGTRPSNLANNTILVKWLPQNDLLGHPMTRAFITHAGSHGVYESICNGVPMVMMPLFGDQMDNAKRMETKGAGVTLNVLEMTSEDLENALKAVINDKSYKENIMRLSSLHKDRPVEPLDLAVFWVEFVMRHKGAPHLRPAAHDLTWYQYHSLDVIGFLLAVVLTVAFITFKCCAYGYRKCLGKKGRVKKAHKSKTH

UGT1A7 = UGT1A7 (Homo sapiens, UniProt Q9HAW7); test: Glucuronidation screen, UGT1A7-over-expressing cell homogenate; assay type: in vitro ADME; conditions: 160 μM CLZ or 320 μM dmCLZ; up to 1 mg cell homogenate
Sequence of UGT1A7 (Q9HAW7 26-530): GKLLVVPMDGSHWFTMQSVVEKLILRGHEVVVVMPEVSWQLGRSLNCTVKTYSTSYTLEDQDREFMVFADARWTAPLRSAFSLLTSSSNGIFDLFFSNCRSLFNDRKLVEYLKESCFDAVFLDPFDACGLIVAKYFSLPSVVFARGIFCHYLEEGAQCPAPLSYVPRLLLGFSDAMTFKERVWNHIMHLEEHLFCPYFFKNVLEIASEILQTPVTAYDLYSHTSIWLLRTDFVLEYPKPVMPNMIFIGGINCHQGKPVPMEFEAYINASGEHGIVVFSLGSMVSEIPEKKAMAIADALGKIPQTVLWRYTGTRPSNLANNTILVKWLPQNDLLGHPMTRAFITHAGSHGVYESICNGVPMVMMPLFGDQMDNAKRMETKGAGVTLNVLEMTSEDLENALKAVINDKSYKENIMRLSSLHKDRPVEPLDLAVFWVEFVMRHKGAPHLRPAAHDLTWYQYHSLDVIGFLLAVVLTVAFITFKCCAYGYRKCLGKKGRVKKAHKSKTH

UGT1A6 = UGT1A6 (Homo sapiens, UniProt P19224); test: Glucuronidation screen, UGT1A6-over-expressing cell homogenate; assay type: in vitro ADME; conditions: 160 μM CLZ or 320 μM dmCLZ; up to 1 mg cell homogenate
Sequence of UGT1A6 (P19224 27-532): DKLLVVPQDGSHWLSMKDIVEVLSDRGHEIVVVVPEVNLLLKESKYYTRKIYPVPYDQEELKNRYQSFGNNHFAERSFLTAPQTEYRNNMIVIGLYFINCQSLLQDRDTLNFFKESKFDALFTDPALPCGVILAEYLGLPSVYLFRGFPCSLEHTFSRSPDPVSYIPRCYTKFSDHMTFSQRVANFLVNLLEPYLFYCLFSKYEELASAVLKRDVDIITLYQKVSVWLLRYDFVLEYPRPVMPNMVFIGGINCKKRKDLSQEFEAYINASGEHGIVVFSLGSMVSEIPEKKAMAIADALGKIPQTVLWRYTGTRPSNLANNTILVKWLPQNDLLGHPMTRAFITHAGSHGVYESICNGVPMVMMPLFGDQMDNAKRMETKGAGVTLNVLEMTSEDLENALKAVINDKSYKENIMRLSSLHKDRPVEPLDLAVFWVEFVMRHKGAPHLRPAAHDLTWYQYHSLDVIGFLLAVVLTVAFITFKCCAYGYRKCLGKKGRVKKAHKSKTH

[2] = cited from earlier work
UGT2B15 = UGT2B15 (Homo sapiens, UniProt P54855); test: Glucuronidation screen, UGT2B15-over-expressing cell homogenate; assay type: in vitro ADME; conditions: 160 μM CLZ or 320 μM dmCLZ; up to 1 mg cell homogenate
Sequence of UGT2B15 (P54855 24-530): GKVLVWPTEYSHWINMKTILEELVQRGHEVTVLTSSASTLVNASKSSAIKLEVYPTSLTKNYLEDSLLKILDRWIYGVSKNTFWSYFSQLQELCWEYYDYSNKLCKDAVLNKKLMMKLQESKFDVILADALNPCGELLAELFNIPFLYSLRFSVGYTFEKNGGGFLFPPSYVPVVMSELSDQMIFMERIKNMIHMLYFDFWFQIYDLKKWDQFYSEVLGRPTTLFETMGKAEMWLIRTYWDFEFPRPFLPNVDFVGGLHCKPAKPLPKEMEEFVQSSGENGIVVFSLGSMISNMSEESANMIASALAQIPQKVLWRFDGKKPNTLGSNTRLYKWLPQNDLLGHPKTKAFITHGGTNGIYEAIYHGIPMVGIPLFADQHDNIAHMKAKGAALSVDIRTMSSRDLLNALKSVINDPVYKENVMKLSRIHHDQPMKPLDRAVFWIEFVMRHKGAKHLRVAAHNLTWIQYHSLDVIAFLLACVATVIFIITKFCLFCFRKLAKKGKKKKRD

UGT1A4^24Thr/48Leu = biological target: T3, UGT1A4^24Thr/48Leu (Homo sapiens, UniProt P22310); test: Glucuronidation by UGT1A4 24Thr/48Leu variant-over-expressing cell homogenate; conditions: vs wild-type UGT1A4^24Pro/48Leu
T3 sequence (P22310 29-534): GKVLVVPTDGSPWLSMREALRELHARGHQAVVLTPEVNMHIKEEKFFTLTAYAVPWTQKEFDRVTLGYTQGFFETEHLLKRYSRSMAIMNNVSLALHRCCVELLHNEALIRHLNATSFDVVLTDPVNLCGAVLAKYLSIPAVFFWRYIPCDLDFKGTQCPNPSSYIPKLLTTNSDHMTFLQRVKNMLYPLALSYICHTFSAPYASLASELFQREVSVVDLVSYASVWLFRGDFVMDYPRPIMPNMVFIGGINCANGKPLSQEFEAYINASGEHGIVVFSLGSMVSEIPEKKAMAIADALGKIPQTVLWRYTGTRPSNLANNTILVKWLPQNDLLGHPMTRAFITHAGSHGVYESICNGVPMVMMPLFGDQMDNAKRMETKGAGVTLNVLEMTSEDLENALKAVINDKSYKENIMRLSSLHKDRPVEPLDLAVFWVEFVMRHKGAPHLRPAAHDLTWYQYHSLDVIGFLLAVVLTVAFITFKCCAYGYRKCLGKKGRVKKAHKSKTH

UGT2B7 = UGT2B7 (Homo sapiens, UniProt P16662); test: Glucuronidation screen, UGT2B7-over-expressing cell homogenate; assay type: in vitro ADME; conditions: 160 μM CLZ or 320 μM dmCLZ; up to 1 mg cell homogenate
UGT1A1 = biological target: T4, UGT1A1 (Homo sapiens, UniProt P22309); test: Glucuronidation by UGT1A1-over-expressing HEK 293 cell homogenate; conditions: 160 μM CLZ or 320 μM dmCLZ; up to 1 mg cell homogenate; UV and MRM detection
T4 sequence (P22309 26-533): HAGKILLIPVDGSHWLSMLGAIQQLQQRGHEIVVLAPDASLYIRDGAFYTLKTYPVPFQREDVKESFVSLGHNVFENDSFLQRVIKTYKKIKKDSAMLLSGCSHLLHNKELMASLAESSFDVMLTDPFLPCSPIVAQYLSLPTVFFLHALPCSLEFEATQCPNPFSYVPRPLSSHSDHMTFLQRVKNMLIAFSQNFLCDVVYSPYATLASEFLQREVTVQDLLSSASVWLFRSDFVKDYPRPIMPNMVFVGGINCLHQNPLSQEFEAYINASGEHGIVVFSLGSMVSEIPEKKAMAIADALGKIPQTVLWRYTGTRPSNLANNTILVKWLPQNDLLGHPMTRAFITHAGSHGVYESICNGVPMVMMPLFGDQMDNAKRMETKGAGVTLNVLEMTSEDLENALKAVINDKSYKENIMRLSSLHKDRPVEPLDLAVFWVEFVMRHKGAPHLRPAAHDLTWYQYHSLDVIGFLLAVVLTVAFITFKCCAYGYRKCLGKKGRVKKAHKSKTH

UGT1A4^24Pro/48Leu = biological target: T5, UGT1A4^24Pro/48Leu (Homo sapiens, UniProt P22310); test: Glucuronidation by wild-type UGT1A4-over-expressing HEK 293 cell homogenate; conditions: 160 μM CLZ or 320 μM dmCLZ; up to 1 mg cell homogenate; UV and MRM detection
T5 sequence (P22310 29-534): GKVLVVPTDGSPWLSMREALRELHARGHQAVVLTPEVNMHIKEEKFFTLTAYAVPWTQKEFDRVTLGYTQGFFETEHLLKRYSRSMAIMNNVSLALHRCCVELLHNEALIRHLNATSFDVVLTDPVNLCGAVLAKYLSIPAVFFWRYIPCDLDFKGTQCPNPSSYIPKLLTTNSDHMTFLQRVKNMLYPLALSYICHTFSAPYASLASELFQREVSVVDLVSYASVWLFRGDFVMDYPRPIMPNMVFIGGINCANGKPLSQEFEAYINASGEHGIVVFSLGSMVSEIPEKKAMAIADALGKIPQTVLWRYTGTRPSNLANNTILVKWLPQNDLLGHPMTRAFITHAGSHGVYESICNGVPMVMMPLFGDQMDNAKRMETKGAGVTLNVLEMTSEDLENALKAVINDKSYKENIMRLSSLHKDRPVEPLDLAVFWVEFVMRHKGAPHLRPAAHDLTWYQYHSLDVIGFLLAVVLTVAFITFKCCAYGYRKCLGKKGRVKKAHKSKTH

UGT2B10 = UGT2B10 (Homo sapiens, UniProt P36537); test: Glucuronidation screen, UGT2B10-over-expressing cell homogenate; assay type: in vitro ADME; conditions: 160 μM CLZ or 320 μM dmCLZ; up to 1 mg cell homogenate; UV and MRM detection
Sequence of UGT2B10 (P36537 24-528): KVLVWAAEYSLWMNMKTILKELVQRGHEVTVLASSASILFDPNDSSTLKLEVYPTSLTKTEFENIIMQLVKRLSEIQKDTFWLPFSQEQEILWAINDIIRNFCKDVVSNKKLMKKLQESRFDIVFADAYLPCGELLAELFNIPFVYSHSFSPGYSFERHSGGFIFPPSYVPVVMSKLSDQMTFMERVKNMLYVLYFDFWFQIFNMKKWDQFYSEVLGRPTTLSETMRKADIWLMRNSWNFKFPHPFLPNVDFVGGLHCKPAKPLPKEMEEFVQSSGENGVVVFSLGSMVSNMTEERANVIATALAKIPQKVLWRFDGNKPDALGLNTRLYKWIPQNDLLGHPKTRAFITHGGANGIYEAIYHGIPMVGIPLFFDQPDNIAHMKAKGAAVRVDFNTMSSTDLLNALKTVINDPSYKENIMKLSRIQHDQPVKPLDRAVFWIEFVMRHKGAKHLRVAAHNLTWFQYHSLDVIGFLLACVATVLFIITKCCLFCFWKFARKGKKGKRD

UGT1A9 = UGT1A9 (Homo sapiens, UniProt O60656); test: Glucuronidation screen, UGT1A9-over-expressing cell homogenate; assay type: in vitro ADME; conditions: 160 μM CLZ or 320 μM dmCLZ; up to 1 mg cell homogenate
UGT1A3 = UGT1A3 (Homo sapiens, UniProt P35503); test: Glucuronidation screen, UGT1A3-over-expressing cell homogenate; assay type: in vitro ADME; conditions: 160 μM CLZ or 320 μM dmCLZ; up to 1 mg cell homogenate; UV and MRM detection
Sequence of UGT1A3 (P35503 29-534): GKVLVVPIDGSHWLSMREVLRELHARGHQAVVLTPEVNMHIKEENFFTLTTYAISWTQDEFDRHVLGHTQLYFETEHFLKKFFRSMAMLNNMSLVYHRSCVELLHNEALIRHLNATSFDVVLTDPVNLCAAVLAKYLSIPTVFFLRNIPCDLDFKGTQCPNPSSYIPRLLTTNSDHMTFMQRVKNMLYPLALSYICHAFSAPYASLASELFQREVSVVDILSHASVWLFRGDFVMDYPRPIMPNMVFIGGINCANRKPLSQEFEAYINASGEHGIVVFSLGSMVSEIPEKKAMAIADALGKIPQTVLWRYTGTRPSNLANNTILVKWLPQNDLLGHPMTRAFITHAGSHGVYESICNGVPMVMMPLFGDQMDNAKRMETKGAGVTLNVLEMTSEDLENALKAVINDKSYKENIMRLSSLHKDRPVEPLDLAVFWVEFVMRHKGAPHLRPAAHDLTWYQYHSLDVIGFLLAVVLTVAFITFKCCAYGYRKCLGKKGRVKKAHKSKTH

UGT1A10 = UGT1A10 (Homo sapiens, UniProt Q9HAW8); test: Glucuronidation screen, UGT1A10-over-expressing cell homogenate; assay type: in vitro ADME; conditions: 160 μM CLZ or 320 μM dmCLZ; up to 1 mg cell homogenate
Sequence of UGT1A10 (Q9HAW8 26-530): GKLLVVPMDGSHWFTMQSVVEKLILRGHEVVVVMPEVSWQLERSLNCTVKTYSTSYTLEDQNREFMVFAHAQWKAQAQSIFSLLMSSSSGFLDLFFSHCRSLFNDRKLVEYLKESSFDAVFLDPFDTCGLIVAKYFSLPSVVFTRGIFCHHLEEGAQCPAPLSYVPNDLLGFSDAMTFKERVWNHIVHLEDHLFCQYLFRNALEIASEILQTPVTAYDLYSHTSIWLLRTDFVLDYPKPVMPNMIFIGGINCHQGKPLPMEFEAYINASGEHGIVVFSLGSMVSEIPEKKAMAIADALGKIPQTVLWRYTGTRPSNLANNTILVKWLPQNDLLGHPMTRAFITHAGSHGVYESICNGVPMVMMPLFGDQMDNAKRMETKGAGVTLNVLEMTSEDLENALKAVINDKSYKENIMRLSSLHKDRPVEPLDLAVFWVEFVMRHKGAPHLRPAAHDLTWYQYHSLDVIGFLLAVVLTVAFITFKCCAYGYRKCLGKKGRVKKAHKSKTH

UGT2B4 = UGT2B4 (Homo sapiens, UniProt P06133); test: Glucuronidation screen, UGT2B4-over-expressing cell homogenate; assay type: in vitro ADME; conditions: 160 μM CLZ or 320 μM dmCLZ; up to 1 mg cell homogenate
Sequence of UGT2B4 (P06133 24-528): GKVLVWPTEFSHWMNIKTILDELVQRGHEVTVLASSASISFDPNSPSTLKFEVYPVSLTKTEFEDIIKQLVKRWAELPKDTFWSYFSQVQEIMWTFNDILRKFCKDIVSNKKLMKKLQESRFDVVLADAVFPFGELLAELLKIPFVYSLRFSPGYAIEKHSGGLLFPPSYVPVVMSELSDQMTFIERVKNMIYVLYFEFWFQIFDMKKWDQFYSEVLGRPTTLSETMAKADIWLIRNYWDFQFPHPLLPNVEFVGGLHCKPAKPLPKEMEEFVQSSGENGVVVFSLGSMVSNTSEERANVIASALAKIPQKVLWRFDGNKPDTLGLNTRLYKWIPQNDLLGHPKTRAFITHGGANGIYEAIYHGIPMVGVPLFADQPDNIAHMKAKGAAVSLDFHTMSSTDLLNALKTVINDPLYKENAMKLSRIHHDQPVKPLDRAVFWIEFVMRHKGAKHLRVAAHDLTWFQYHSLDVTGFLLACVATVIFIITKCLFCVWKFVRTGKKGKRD

UGT2B17 = UGT2B17 (Homo sapiens, UniProt O75795); test: Glucuronidation screen, UGT2B17-over-expressing cell homogenate; assay type: in vitro ADME; conditions: 160 μM CLZ or 320 μM dmCLZ; up to 1 mg cell homogenate
Sequence of UGT2B17 (O75795 24-530): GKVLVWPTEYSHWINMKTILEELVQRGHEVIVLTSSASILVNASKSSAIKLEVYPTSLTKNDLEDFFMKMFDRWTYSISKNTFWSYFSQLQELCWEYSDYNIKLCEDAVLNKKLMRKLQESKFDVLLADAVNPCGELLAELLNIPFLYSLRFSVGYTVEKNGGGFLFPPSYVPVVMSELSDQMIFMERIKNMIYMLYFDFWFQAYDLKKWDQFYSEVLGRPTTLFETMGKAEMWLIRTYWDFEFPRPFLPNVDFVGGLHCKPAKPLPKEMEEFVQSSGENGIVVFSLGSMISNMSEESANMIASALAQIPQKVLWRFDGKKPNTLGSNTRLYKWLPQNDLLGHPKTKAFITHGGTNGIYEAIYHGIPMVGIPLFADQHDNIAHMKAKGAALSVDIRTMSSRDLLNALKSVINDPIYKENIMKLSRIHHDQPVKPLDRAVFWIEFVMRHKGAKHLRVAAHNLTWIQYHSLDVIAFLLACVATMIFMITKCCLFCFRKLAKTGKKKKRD

UGT2B11 = UGT2B11 (Homo sapiens, UniProt O75310); test: Glucuronidation screen, UGT2B11-over-expressing cell homogenate; assay type: in vitro ADME; conditions: 160 μM CLZ or 320 μM dmCLZ; up to 1 mg cell homogenate
Sequence of UGT2B11 (O75310 22-529): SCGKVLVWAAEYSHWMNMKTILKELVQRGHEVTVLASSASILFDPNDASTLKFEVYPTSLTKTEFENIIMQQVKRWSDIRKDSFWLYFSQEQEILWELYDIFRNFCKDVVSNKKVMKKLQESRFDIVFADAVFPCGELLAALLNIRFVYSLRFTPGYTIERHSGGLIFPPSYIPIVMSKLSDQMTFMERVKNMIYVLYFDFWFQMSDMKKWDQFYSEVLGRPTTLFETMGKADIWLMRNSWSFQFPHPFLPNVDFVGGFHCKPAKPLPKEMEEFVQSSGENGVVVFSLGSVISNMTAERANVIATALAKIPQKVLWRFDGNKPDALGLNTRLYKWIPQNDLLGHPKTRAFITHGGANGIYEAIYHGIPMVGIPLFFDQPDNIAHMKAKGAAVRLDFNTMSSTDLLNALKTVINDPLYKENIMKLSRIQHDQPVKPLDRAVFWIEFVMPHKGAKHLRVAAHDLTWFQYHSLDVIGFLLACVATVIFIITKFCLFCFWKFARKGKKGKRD

UGT1A8 = UGT1A8 (Homo sapiens, UniProt Q9HAW9); test: Glucuronidation screen, UGT1A8-over-expressing cell homogenate; assay type: in vitro ADME; conditions: 160 μM CLZ or 320 μM dmCLZ; up to 1 mg cell homogenate
[3] = substrate: CN1CCN(C2=Nc3cc(Cl)ccc3Nc3ccccc32)CC1; test: cells, lysate or membranes named; conditions: other: substrate CLZ
[4] = substrate: Clc1ccc2c(c1)N=C(N1CCNCC1)c1ccccc1N2; test: cells, lysate or membranes named; conditions: other: substrate dmCLZ

Molecule: hecogenin
- inhibition of CLZ-5-N-glucuronide formation (UGT1A4; 160 μM CLZ): 77%
- inhibition of CLZ-N^+-glucuronide formation (UGT1A4; 160 μM CLZ): 82%
- inhibition of dmCLZ-5-N-glucuronide formation (UGT1A4; 320 μM dmCLZ): 81%
- inhibition of CLZ-5-N-glucuronide formation [1]: 89 ± 3%
- inhibition of CLZ-N^+-glucuronide formation [1]: 46 ± 5%

Molecule: CN1CCN(C2=Nc3cc(Cl)ccc3Nc3ccccc32)CC1 [CLZ, Clozapine, reference compound]
- decrease in KM, CLZ-5-N-glucuronide formation (UGT1A4^24Pro/48Val; vs UGT1A4^24Thr/48Leu variant): 56%
- decrease in KM, CLZ-5-N-glucuronide formation (UGT1A4^24Pro/48Val; vs wild-type UGT1A4^24Pro/48Leu): 58%
- detectable glucuronidation activity (screen) (UGT1A7): None
- detectable glucuronidation activity (screen) (UGT1A6): None
- administered dose being metabolized [2]: 97%
- patients who fail to respond to CLZ treatment despite adequate dosing [2]: Approximately 30%
- CLZ and dmCLZ glucuronides, share of all recovered metabolites in urine and bile ([2]; human subjects taking CLZ): 33–38%
- plasma concentrations (inter-individual variability for a given dose of CLZ) ([2]; patients): 3 to 1507 ng/mL
- detectable glucuronidation activity (screen) (UGT2B15): None
- decrease in Vmax, CLZ-5-N-glucuronide formation (UGT1A4^24Thr/48Leu): 21%
- lower Vmax/KM, CLZ-5-N-glucuronide formation (UGT1A4^24Thr/48Leu): 20%
- detectable glucuronidation activity (screen) (UGT2B7): None
- detectable glucuronidation activity (screen) (UGT1A1): detectable levels of activity
- detectable glucuronidation activity (screen) (UGT1A4^24Pro/48Leu): detectable levels of activity
- detectable glucuronidation activity (screen) (UGT2B10): detectable levels of activity; also recorded: barely above the limits of detection
- detectable glucuronidation activity (screen) (UGT1A9): None
- detectable glucuronidation activity (screen) (UGT1A3): detectable levels of activity; also recorded: barely above the limits of detection
- detectable glucuronidation activity (screen) (UGT1A10): None
- detectable glucuronidation activity (screen) (UGT2B4): None
- detectable glucuronidation activity (screen) (UGT2B17): None
- detectable glucuronidation activity (screen) (UGT2B11): None
- detectable glucuronidation activity (screen) (UGT1A8): None

B1: UGT1A4^24Thr/48Leu (Homo sapiens) (protein)
chain: MARGLQVPLPRLATGLLLLLSVQPWAESGKVLVVPTDGSPWLSMREALRELHARGHQAVVLTPEVNMHIKEEKFFTLTAYAVPWTQKEFDRVTLGYTQGFFETEHLLKRYSRSMAIMNNVSLALHRCCVELLHNEALIRHLNATSFDVVLTDPVNLCGAVLAKYLSIPAVFFWRYIPCDLDFKGTQCPNPSSYIPKLLTTNSDHMTFLQRVKNMLYPLALSYICHTFSAPYASLASELFQREVSVVDLVSYASVWLFRGDFVMDYPRPIMPNMVFIGGINCANGKPLSQEFEAYINASGEHGIVVFSLGSMVSEIPEKKAMAIADALGKIPQTVLWRYTGTRPSNLANNTILVKWLPQNDLLGHPMTRAFITHAGSHGVYESICNGVPMVMMPLFGDQMDNAKRMETKGAGVTLNVLEMTSEDLENALKAVINDKSYKENIMRLSSLHKDRPVEPLDLAVFWVEFVMRHKGAPHLRPAAHDLTWYQYHSLDVIGFLLAVVLTVAFITFKCCAYGYRKCLGKKGRVKKAHKSKTH
- Km [3]: 167 ± 19^d μM and 459 ± 23^e μM
- Km [4]: 440 ± 45^b μM
- Vmax [4]: 0.0064 ± 0.0009 µmol/min/mg
- Vmax/Km [4]: 15 ± 1.5 µL/min/mg
